Patent publication US5514694A, “Peptidyl ketoamides” (Georgia Tech Research Corp, priority 1993, dated 1996)
pKi: −log10 of the molar value. Read-outs that look alike come from different tables or passages of the source.

Assays:
Type in all cases: biochemical
[1] = biological target: T1, Calpain I from human erythrocytes (Homo sapiens, UniProt P07384); assay: Calpain I inhibition, Suc-Leu-Tyr-AMC hydrolysis (KI); conditions: read-out: KI Cal I
T1 construct: Calpain I was purified from human erythrocytes; from tissue; host or cells: human erythrocytes
T1 sequence (P07384 1-714): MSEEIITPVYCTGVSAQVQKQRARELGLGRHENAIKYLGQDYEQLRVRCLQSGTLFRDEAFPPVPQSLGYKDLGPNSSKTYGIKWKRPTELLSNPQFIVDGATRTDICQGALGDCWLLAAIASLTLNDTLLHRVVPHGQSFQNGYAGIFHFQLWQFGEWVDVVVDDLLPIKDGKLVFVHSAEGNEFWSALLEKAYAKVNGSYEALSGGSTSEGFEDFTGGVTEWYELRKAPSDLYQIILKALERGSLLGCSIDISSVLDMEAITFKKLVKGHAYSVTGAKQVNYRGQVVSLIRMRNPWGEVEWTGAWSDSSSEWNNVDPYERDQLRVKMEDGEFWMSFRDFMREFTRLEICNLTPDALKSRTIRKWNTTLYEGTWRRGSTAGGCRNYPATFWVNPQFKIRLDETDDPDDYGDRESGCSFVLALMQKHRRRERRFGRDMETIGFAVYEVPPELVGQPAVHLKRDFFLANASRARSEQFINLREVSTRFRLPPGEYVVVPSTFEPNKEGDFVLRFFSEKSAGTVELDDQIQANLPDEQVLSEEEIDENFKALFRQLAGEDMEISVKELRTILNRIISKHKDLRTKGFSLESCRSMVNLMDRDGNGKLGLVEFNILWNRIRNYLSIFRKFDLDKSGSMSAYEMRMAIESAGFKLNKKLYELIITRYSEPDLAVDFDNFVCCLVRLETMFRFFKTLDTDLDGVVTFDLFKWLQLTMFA
T1 sequence (P04632 1-268 partner): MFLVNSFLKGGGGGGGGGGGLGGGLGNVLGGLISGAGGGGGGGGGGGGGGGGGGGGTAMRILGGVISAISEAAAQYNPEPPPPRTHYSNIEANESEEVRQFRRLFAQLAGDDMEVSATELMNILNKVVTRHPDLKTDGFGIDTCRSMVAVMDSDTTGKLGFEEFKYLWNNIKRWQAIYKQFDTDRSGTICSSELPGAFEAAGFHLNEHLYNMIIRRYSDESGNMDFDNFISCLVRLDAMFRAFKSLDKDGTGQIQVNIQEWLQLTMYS
Method: (§1) HEPES, heparin, and A23187 were obtained from Calbiochem. Suc-Leu-Tyr-AMC and chromogenic substrates were obtained from Sigma. Calpain I was purified from human erythrocytes according to the method of Kitahara (Kitahara et al., J. Biochem. 95, 1759-1766) omitting the Blue-Sepharose step. Calpain II from rabbit muscle and cathepsin B were purchased from Sigma. Papain was purchased from Calbiochem.
(§2) Peptide α-ketoamides were assayed as reversible enzyme inhibitors. Various concentrations of inhibitors in Me2 SO were added to the assay mixture which contained buffer and substrate. The reaction was started by the addition of the enzyme and the hydrolysis rates were followed spectrophotometrically or fluorimetrically.
(§3) Calpain I from human erythrocytes and calpain II from rabbit were assayed using Suc-Leu-Tyr-AMC Sasaki et al., J. Biol. Chem. 259, 12489-12494 (1984); incorporated herein by reference!, and the AMC (7-amino-4-methylcoumarin) release was followed fluorimetrically (excitation at 380 nm, and emmision at 460 nm). Calpains were assayed in 25 mM Tris pH=8.0, 10 mM CaC12. Fluorescence was followed using a Gilson FL-1A fluorometer or a Perkin-Elmer 203 Fluorescence spectrometer. Cathepsin B was assayed in 20 mM sodium acetate pH=5.2, 0.5 mM dithiothreitol using Bz-Phe-Val-Arg-p-nitroanilide as substrate. Alternately, cathepsin B was assayed with Z-Arg-Arg-AFC Barrett and Kirschke, Methods Enzymol. 80, 535-561 (1981); incorporated herein by reference!, and the AFC (7-amino-4-trifluoromethylcoumarin) release was followed fluorimetrically (excitation at 400 nm and emmision at 505 nm). Papain was assayed in 100 mM KPO4, 1 mM EDTA, 2.5 mM cysteine pH=6.0 using Bz-Arg-AMC or Bz-Arg-NA Kanaoka et al., Chem. Pharm. Bull. 25, 3126-3128 (1977); incorporated herein by reference! as a substrate. The AMC (7-amino-4-methylcoumarin) release was followed fluorimetrically (excitation at 380 nm, and emmision at 460 nm). Enzymatic hydrolysis rates were measured at various substrate and inhibitor concentrations, and KI values were determined by either Lineweaver-Burk plots or Dixon plots.
(§4) A 0.1M Hepes, 0.5M NaCl, pH 7.5 buffer was utilized for human leukocyte elastase (HLE), porcine pancreatic elastase (PPE), chymotrypsin and cathepsin G. A 0.1 Hepes, 0.01 M CaCl2, pH 7.5 buffer was utilized for trypsin, plasmin, and coagulation enzymes. A 50 mM Tris.HCl, 2 mM EDTA, 5 mM cysteine, pH 7.5 was used as a buffer for papain. A 88 mM KH2 PO4, 12 mM Na2 HPO4, 1.33 mM EDTA, 2.7 mM cysteine, pH 6.0 solution was used as a buffer for cathepsin B. A 20 mM Hepes, 10 mM CaCl2, 10 mM mercatoethanol, pH 7.2 buffer was utilized for calpain I and calpain II.

[2] = biological target: calpain II from rabbit; assay: Calpain II inhibition, Suc-Leu-Tyr-AMC hydrolysis (KI); conditions: for pKi: read-out: KI Cal II
Method: as §1, §2, §3, §4

[3] = biological target: T2, cathepsin B (Homo sapiens, UniProt P07858); assay: Cathepsin B inhibition (KI); conditions: read-out: KI Cat B
T2 construct: purchased Sigma
Method: as §1, §2, §3, §4

Row | Structure (SMILES) | pKi ([1]; Table 3, M1 CO-Leu--AA--CONH-R) | pKi ([2]; Table 3, M1 CO-Leu--AA--CONH-R) | pKi ([3]; Table 3, M1 CO-Leu--AA--CONH-R) | pKi ([1]; Table 1, Z-Leu--AA--CONHR) | pKi ([3]; Table 1, Z-Leu--AA--CONHR) | pKi ([2]; Table 1, Z-Leu--AA--CONHR) | inhibition of calpain II, in words [2]
1 | CC(C)CC(NC(=O)C(c1ccccc1)c1ccccc1)C(=O)NC(Cc1ccccc1)C(=O)C(=O)NCc1ccccn1 (stereo not drawn) [Ph2 CH-CO-Leu-Phe-CONH-CH2 -2-pyridyl, Ph2 CHCO-Leu-Phe-CONH--CH2 -2-Pyridyl] | 5.96 | 6.44 | 5.66 | – | – | – | –
2 | CCC(NC(=O)C(CC(C)C)NC(=O)C(c1ccccc1)c1ccccc1)C(=O)C(=O)NCCCN1CCOCC1 (stereo not drawn) [Ph2 CHCO-Leu-Abu-CONH--N--(CH2)3 -Morpholinyl] | 6.10 | 6.96 | 5.64 | – | – | – | –
3 | CC(C)CC(NC(=O)C(c1ccccc1)c1ccccc1)C(=O)NC(Cc1ccccc1)C(=O)C(=O)NCCCN1CCOCC1 (stereo not drawn) [Ph2 CHCO-Leu-Phe-CONH--(CH2)3 -4-Morpholinyl] | 6.12 | 7.13 | 5.42 | – | – | – | –
4 | CC[C@H](NC(=O)[C@H](CC(C)C)NC(=O)OCc1ccccc1)C(=O)C(=O)NCCc1ccccc1OC [Z-Leu-Abu-CONH-(CH2)2 C6 H4 (2-OCH3), Z-Leu-Abu-CONH--(CH2)2 C6 H4 (2-OCH3)] | – | – | – | 6.89 | 6.20 | – | –
5 | CCC(NC(=O)C(CC(C)C)NC(=O)OCc1ccccc1)C(=O)C(=O)NCCc1ccc(OC)cc1 (stereo not drawn) [Z-Leu-Abu-CONH-(CH2)2 C6 H4 (4-OCH3), Z-Leu-Abu-CONH--(CH2)2 C6 H4 (4-OCH3)] | – | – | – | 6.92 | 6.36 | 7.34 | –
6 | CCC(NC(=O)C(CC(C)C)NC(=O)OCc1ccccc1)C(=O)C(=O)NCCO (stereo not drawn) [Z-Leu-Abu-CONH-(CH2)2 OH, Z-Leu-Abu-CONH--(CH2)2 OH] | – | – | – | 6.10 | 5.35 | – | –
7 | CCC(NC(=O)C(CC(C)C)NC(=O)OCc1ccccc1)C(=O)C(=O)NCCCn1ccnc1 (stereo not drawn) [Z-Leu-Abu-CONH-(CH2)3 -1-imidazolyl, Z-Leu-Abu-CONH--(CH2)3 -1-Imidazolyl] | – | – | – | 6.54 | 5.00 | 7.17 | –
8 | CC[C@H](NC(=O)[C@H](CC(C)C)NC(=O)OCc1ccccc1)C(=O)C(=O)NCCCCCO [Z-Leu-Abu-CONH-(CH2)5 OH, Z-Leu-Abu-CONH--(CH2)5 OH] | – | – | – | – | 6.55 | 7.29 | –
9 | CCC(NC(=O)[C@H](CC(C)C)NC(=O)OCc1ccccc1)C(=O)C(=O)NCCc1cccn1C (stereo partly drawn) [Z-Leu-Abu-CONH--(CH2)2-2-(N-Methylpyrrole)] | – | – | – | – | 5.92 | 7.12 | –
10 | CCC(NC(=O)C(CC(C)C)NC(=O)OCc1ccccc1)C(=O)C(=O)NCCCN1CCCC1=O (stereo not drawn) [Z-Leu-Abu-CONH--(CH2)3 -1-Pyrrolidinyl-2-one] | – | – | – | 5.92 | 5.70 | 6.57 | –
11 | CCC(NC(=O)C(CC(C)C)NC(=O)OCc1ccccc1)C(=O)C(=O)NCCCN1CCc2ccccc2C1 (stereo not drawn) [Z-Leu-Abu-CONH--(CH2)3 -2-Tetrahydroisoquinolinyl] | – | – | – | 6.51 | 5.10 | – | –
12 | CCC(NC(=O)C(CC(C)C)NC(=O)OCc1ccccc1)C(=O)C(=O)NCC1(C)CC(O)CC(C)(C)C1 (stereo not drawn) [Z-Leu-Abu-CONH--CH2 --C6 H8 (1,3,3-(CH3)3 -5-OH)] | – | – | – | 6.38 | 6.05 | 7.16 | –
13 | CCC(NC(=O)C(CC(C)C)NC(=O)OCc1ccccc1)C(=O)C(=O)NCc1nccc2ccccc12 (stereo not drawn) [Z-Leu-Abu-CONH-CH2 -1-isoquinolinyl, Z-Leu-Abu-CONH--CH2 -1-Isoquinolinyl] | – | – | – | 6.60 | 6.52 | – | –
14 | CCC(NC(=O)C(CC(C)C)NC(=O)OCc1ccccc1)C(=O)C(=O)NCc1ccccn1 (stereo not drawn) [Z-Leu-Abu-CONH-CH2 -2-pyridyl, Z-Leu-Abu-CONH--CH2 -2-Pyridyl] | – | – | – | 6.19 | 5.52 | 7.77 | best inhibitor of calpain II
15 | CCC(NC(=O)C(CC(C)C)NC(=O)OCc1ccccc1)C(=O)C(=O)NCC1CCCO1 (stereo not drawn) [Z-Leu-Abu-CONH-CH2 -2-tetrahydrofuryl, Z-Leu-Abu-CONH--CH2 -2-Tetrahydrofuryl] | – | – | – | 6.48 | 5.35 | 7.18 | –
16 | CCC(NC(=O)C(CC(C)C)NC(=O)OCc1ccccc1)C(=O)C(=O)NCc1cccnc1 (stereo not drawn) [Z-Leu-Abu-CONH-CH2 -3-pyridyl, Z-Leu-Abu-CONH--CH2 -3-Pyridyl] | – | – | – | – | 5.92 | 6.92 | substantially poorer inhibitors
17 | CCC(NC(=O)C(CC(C)C)NC(=O)OCc1ccccc1)C(=O)C(=O)NCc1ccncc1 (stereo not drawn) [Z-Leu-Abu-CONH-CH2 -4-pyridyl, Z-Leu-Abu-CONH--CH2 -4-Pyridyl] | – | – | – | 5.96 | 5.19 | 6.96 | substantially poorer inhibitors
18 | CC[C@H](NC(=O)[C@H](CC(C)C)NC(=O)OCc1ccccc1)C(=O)C(=O)NCc1cc(OC)cc(OC)c1 [Z-Leu-Abu-CONH-CH2 C6 H3 (3,5-(OCH3)2), Z-Leu-Abu-CONH--CH2 C6 H3 (3,5-(OCH3)2] | – | – | – | 5.64 | 5.74 | 7.66 | –
19 | CC(C)C[C@H](NC(=O)OCc1ccccc1)C(=O)NC(Cc1ccccc1)C(=O)C(=O)NCc1nccc2ccccc12 (stereo partly drawn) [Z-Leu-Phe-CONH-CH2 -1-isoquinolinyl, Z-Leu-Phe-CONH--CH2 -1-Isoquinolinyl] | – | – | – | 5.62 | 5.02 | – | –
20 | CC(C)CC(NC(=O)OCc1ccccc1)C(=O)NC(Cc1ccccc1)C(=O)C(=O)NCc1ccccn1 (stereo not drawn) [Z-Leu-Phe-CONH-CH2 -2-pyridyl, Z-Leu-Phe-CONH--CH2 -2-Pyridyl] | – | – | – | – | 6.57 | 6.19 | –
